In patent publication US20170051002A1, “Rebaudioside A Crystal And Its Preparation Method And Use” (Zhucheng Haotian Pharm Co., Ltd., priority 2014, published 2017):

Assays:
[1] = storage stability at 25° C. RH 60% for 3 months (crystal form, HPLC purity); type: physicochemical; conditions: after standing for 3 months
Experimental: The maximum solubility of the sample obtained according to the above-mentioned examples is about 30 mg/mL, and the form remains unchanged when stored at 25° C. RH 60% for 3 months from the results of HPLC analysis (purity is detected by high performance liquid chromatography, and the liquid chromatographic column and liquid chromatography used are the same as those specified by JECFA in 2010).
Perparation of sample solution: Precisely 50-100 milligrams of rebaudioside A were weighed and placed in a 50 milliliter volumetric flask, and then a solution of water and acetonitrile in a ratio of 7:3 were added for dissolution to a scale of 50 milliliter. Detection step: 5 μl of a sample solution are injected under the following conditions. Chromatographic Column: A Capcell pak C18 MG II chromatographic column from the Shiseido company or a Luna 5μ C18(2) 100A chromatographic column from the Phenomenex company or a chromatographic column of equivalent specifications (length: 250 millimeters; inner diameter: 4.6 millimeters; packing particle size: 5 μm). Mobile Phase: a mixture of acetonitrile and a sodium phosphate buffer (specification: 10 mmol/L, pH value of 2.6) in a ratio of 32:68. […] Chromatographic Column temperature: detection patterns are recorded for about 30 minutes at 40° C. […]

[2] = large number of scientific experiments; cited from earlier work
[3] = dynamic vapor adsorption (DVS) hygroscopicity; type: physicochemical; conditions: conventional storage environment 40%-80% RH; 25° C.
Experimental: “Dynamic vapor adsorption (DVS)” is an instrument for measuring the hygroscopicity of a sample. Its measurement method is known in the field. For example, an instrument from Surface Measurement Systems, Ltd. may be used to collect data of humidity ranging from 5% to 95% at 25 degrees Celsius. The weight deviation under each humidity is no more than ±0.02% within 10 min. The rebaudioside A Form 7 of the present invention has particular stability, which is conducive to storage. […] In a preferred embodiment, the DVS isotherm of the resulting rebaudioside A crystal form 7 is substantially identical to FIG. 4. DVS: All dynamic vapour adsorption (DVS) experimental data of the present invention are measured by a DVS Intrinsic dynamic vapour sorption instrument from SMS, UK. Measurement conditions: Temperature: 25° C.; Relative humidity range: 5%-95%.

SMILES	purity change by HPLC compared to the starting material [1]	toxicity and side effect [2]	hygroscopicity in DVS patterns [3]
C=C1C[C@@]23CC[C@H]4[C@@](C)(CCC[C@@]4(C)C(=O)O[C@@H]4O[C@H](CO)[C@@H](O)[C@H](O)[C@H]4O)[C@@H]2CC[C@]1(O[C@@H]1O[C@H](CO)[C@@H](O)[C@H](O[C@@H]2O[C@H](CO)[C@@H](O)[C@H](O)[C@H]2O)[C@H]1O[C@@H]1O[C@H](CO)[C@@H](O)[C@H](O)[C@H]1O)C3 [Rebaudioside A]	less than 0.5%	without any toxicity and side effect	
C=C1C[C@@]23CC[C@H]4[C@@](C)(CCC[C@@]4(C)C(=O)O[C@@H]4O[C@H](CO)[C@@H](O)[C@H](O)[C@H]4O)[C@@H]2CC[C@]1(O[C@@H]1O[C@H](CO)[C@@H](O)[C@H](O[C@@H]2O[C@H](CO)[C@@H](O)[C@H](O)[C@H]2O)[C@H]1O[C@@H]1O[C@H](CO)[C@@H](O)[C@H](O)[C@H]1O)C3 [rebaudioside A Form 7, rebaudioside A]			little hygroscopicity
